Laboratory results from patent US20040097574A1, “Glucocorticoid mimetics, methods of making them, pharmaceutical compositions, and uses thereof” (Boehringer Ingelheim Pharmaceuticals, Inc., priority 2002, published 2004).

Experiments:
[1] = molecular target: T1, human glucocorticoid receptor (GR) complex (Homo sapiens, UniProt P04150); assay: Glucocorticoid receptor competitive binding assay (fluorescence polarization); conditions: competition with TAMRA-labeled dexamethasone; read-out: potent activity in the GR binding assay (IC50)
T1 construct: made in house; host or cells: insect expression system (baculovirus lysate)
T1 sequence (P04150 1-777): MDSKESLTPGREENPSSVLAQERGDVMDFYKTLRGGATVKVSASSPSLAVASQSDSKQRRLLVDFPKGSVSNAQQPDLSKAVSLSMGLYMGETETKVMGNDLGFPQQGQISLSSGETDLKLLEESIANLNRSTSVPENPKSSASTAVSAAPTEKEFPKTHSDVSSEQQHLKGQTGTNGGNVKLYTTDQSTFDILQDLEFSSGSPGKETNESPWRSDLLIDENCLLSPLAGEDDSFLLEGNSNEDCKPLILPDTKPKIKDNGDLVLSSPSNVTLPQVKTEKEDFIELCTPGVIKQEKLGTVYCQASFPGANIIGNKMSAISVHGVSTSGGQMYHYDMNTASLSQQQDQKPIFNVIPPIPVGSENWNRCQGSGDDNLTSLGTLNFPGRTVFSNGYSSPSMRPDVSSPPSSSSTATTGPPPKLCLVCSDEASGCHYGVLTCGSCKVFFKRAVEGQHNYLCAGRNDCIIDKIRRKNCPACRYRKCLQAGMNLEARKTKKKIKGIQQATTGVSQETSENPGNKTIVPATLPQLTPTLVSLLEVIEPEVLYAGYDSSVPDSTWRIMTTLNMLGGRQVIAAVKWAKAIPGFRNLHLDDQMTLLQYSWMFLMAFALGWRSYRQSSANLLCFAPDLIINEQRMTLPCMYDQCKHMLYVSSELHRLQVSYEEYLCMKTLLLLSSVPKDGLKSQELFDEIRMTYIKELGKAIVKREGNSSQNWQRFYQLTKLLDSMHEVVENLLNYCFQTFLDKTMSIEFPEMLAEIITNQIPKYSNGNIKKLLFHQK
Experimental: Compounds of the invention were evaluated for binding to the steroid receptor by a fluorescence polarization competitive binding assay. Detailed descriptions for preparation of recombinant glucocorticoid receptor (GR) complex used in the assay is described in U.S. Patent Application Publication No. US 2003/0017503, filed May 20, 2002, and the corresponding U.S. provisional application No. 60/291,877, filed May 18, 2001, each of which is incorporated herein by reference in its entirety. Preparation of the tetramethyl rhodamine (TAMRA)-labeled dexamethasone probe was accomplished using a standard literature procedure (M. Pons et al., J. Steroid Biochem., 1985, 22, pp. 267-273).
A. Glucocorticoid Receptor Competitive Binding Assay
Step 1. Characterization of the Fluorescent Probe
The wavelengths for maximum excitation and emission of the fluorescent probe should first be measured. An example of such a probe is rhodamine (TAMRA)-labeled dexamethasone.
The affinity of the probe for the steroid receptor was then determined in a titration experiment. The fluorescence polarization value of the probe in assay buffer was measured on an SLM-8100 fluorometer using the excitation and emission maximum values described above. Aliquots of expression vector lysate were added and fluorescence polarization was measured after each addition until no further change in polarization value was observed. Non-linear least squares regression analysis was used to calculate the dissociation constant of the probe from the polarization values obtained for lysate binding to the probe.
Step 2. Screening for Inhibitors of Probe Binding
This assay uses fluorescence polarization (FP) to quantitate the ability of test compounds to compete with tetramethyl rhodamine (TAMRA)-labeled dexamethasone for binding to a human glucocorticoid receptor (GR) complex prepared from an insect expression system. The assay buffer was: 10 mM TES, 50 mM KCl, 20 mM Na2MoO4.2H2O, 1.5 mM EDTA, 0.04% w/v CHAPS, 10% v/v glycerol, 1 mM dithiothreitol, pH 7.4. Test compounds were dissolved to 1 mM in neat DMSO and then further diluted to 10x assay concentration in assay buffer supplemented with 10% v/v DMSO. Test compounds were serially diluted at 10x assay concentrations in 10% DMSO-containing buffer in 96-well polypropylene plates. Binding reaction mixtures were prepared in 96-well black Dynex microtiter plates by sequential addition of the following assay components to each well: 15 μL of 10x test compound solution, 85 μL of GR-containing baculovirus lysate diluted 1:170 in assay buffer, and 50 μL of 15 nM TAMRA-labeled dexamethasone. Positive controls were reaction mixtures containing no test compound; negative controls (blanks) were reaction mixtures containing 0.7 μM to 2 μM dexamethasone. The binding reactions were incubated for 1 hour at room temperature and then read for fluorescence polarization in the LJL Analyst set to 550 nm excitation and 580 nm emission, with the Rhodamine 561 dichroic mirror installed. IC50 values were determined by iterative non-linear curve fitting of the FP signal data to a 4-parameter logistic equation.

[2] = tested on: glucocorticoid receptor function; assay: Glucocorticoid receptor function, one or more of the above assays (agonist/antagonist/modulator activity); assay type: cell-based; conditions: in one or more of the above assays
Experimental: B. Glucocorticoid Receptor Cell Assays
1. Induction of Aromatase in Fibroblasts (Cell Assay for Transactivation)
Dexamethasone, a synthetic ligand to the glucocorticoid receptor (GR), induces expression of aromatase in human foreskin fibroblast cells. The activity of aromatase is measured by the conversion of testosterone to estradiol in culture media.
On the day of the experiment, the media in the wells is replaced with fresh media. Cells are treated with test compounds to final concentrations of 10^−5 M to 10^−8 M, and testosterone to a final concentration of 300 ng/mL. Each well has a total volume of 100 μL. Samples are made in duplicates. Control wells include: (a) wells that receive testosterone only, and (b) wells that receive testosterone plus 2 μM of dexamethasone to provide maximum induction of aromatase. Plates are incubated at 37° C. overnight (15 to 18 hours), and supernatants are harvested at the end of incubation. […] The amount of estradiol is inversely proportional to the ELISA signals in each well. The extent of aromatase induction by test compounds is expressed as a relative percentage to dexamethasone. EC50 values of test compounds are derived by non-linear curve fitting.
2. Inhibition of IL-6 Production in Fibroblasts (Cell Assay for Transrepression)
Human foreskin fibroblast cells produce IL-6 in response to stimulation by pro-inflammatory cytokine IL-1.
On the next day, media in the wells is replaced with fresh media. Cells are treated with IL-1 (rhIL-1α, R&D Systems Cat. No. 200-LA) to a final concentration of 1 ng/mL, and with test compounds to final concentrations of 10^−5 M to 10^−8 M, in a total volume of 200 μL per well. Samples are done in duplicates. […] Positive control wells receive IL-1 only and represent maximum (or 100%) amount of IL-6 production. Plates are incubated at 37° C. overnight (15 to 18 hours), and supernatants are harvested at the end of incubation. IL-6 levels in the supernatants are determined by the ELISA kits for IL-6 (MedSystems Diagnostics GmbH, Vienna, Austria, Cat. No. BMS213TEN) according to manufacture's instructions. The extent of inhibition of IL-6 by test compounds is expressed in percentage relative to positive controls. IC50 values of test compounds are derived by non-linear curve fitting.
Evaluation of agonist or antagonist activity of compounds binding to the glucocorticoid receptor may be determined by any of the assays.
3. Modulation of Tyrosine Aminotransferase (TAT) Induction in Rat Hepatoma Cells
Testing of compounds for agonist or antagonist activity in induction of tyrosine aminotransferase (TAT) in rat hepatoma cells.
H4-II-E-C3 cells were incubated overnight in 96 well plates (20,000 cells/100 μL/well) in MEM medium containing 10% heat inactivated FBS and 1% nonessential amino acids. On the next day, cells were stimulated with the indicated concentrations of dexamethasone or test compound (dissolved in DMSO, final DMSO concentration 0.2%) for 18 hours. Control cells were treated with 0.2% DMSO. After 18 hours, the cells were lysed in a buffer containing 0.1% Triton X-100 and the TAT activity was measured in a photometric assay using tyrosine and alpha-ketoglutarate as substrates.
For measuring antagonist activity, the hepatoma cells were pre-stimulated by addition of dexamethasone (concentration ranges from 3×10^−9 M to 3×10^−8 M) shortly before the test compound was applied to the cells.
4. Modulation of MMTV-Luc Induction in HeLa Cells
Testing of compounds for agonist or antagonist activity in stimulation of MMTV-(mouse mammary tumor virus) promoter in HeLa cells.
Cells were cultured overnight in DMEM medium without phenol red, supplemented with 3% CCS (charcoal treated calf serum) and then transferred to 96 well plates (15,000 cells/100 μL/well).

SMILES | IC50 [1] [nM] | activity as antagonists of the glucocorticoid receptor function [2] | activity as an agonist of the glucocorticoid receptor function [2]
CCC(Cc1c[nH]c2ccccc12)NS(=O)(=O)c1c(Cl)cc(Cl)cc1Cl (centres unmarked) [2,4,6-Trichloro-N-[1-(1H-indol-3-ylmethyl)propyl]benzenesulfonamide] | ≤ 100 | – | –
CC(Cc1c[nH]c2ccccc12)NS(=O)(=O)c1c(Cl)cccc1Cl (centres unmarked) [2,6-Dichloro-N-[2-(1H-indol-3-yl)-1-methylethyl]benzenesulfonamide] | – | activity as antagonists | –
CC(Cc1c[nH]c2ccccc12)NS(=O)(=O)c1c(Cl)sc(Cl)c1Br (centres unmarked) [4-Bromo-2,5-dichlorothiophene-3-sulfonic acid [2-(1H-indol-3-yl)-1-methylethyl]amide] | ≤ 100 | activity as antagonists | –
CC(Cc1c[nH]c2ccccc12)NS(=O)(=O)c1c(C(C)C)cc(C(C)C)cc1C(C)C (centres unmarked) [N-[2-(1H-Indol-3-yl)-1-methylethyl]-2,4,6-triisopropylbenzenesulfonamide] | ≤ 100 | activity as antagonists | –

Continued, values first:

IC50 [1] [nM] | activity as antagonists of the glucocorticoid receptor function [2] | activity as an agonist of the glucocorticoid receptor function [2] | SMILES
≤ 100 | activity as antagonists | – | CC(Cc1c[nH]c2ccccc12)NS(=O)(=O)c1c(Cl)cc(Cl)cc1Cl (centres unmarked) [2,4,6-Trichloro-N-[2-(1H-indol-3-yl)-1-methylethyl]benzenesulfonamide]
– | activity as antagonists | – | Cc1cccc(Cl)c1S(=O)(=O)NC(C)Cc1c[nH]c2ccccc12 (centres unmarked) [2-Chloro-N-[2-(1H-indol-3-yl)-1-methylethyl]-6-methylbenzenesulfonamide]
≤ 100 | – | – | CCC(Cc1c[nH]c2ccccc12)NS(=O)(=O)c1c(C)cc(C)cc1C (centres unmarked) [N-[1-(1H-Indol-3-ylmethyl)propyl]-2,4,6-trimethylbenzenesulfonamide]
≤ 100 | – | activity as an agonist | Cc1cc(C)c(S(=O)(=O)NC(C)Cc2c[nH]c3ccccc23)c(C)c1 (centres unmarked) [N-[2-(1H-Indol-3-yl)-1-methylethyl]-2,4,6-trimethylbenzenesulfonamide]
≤ 100 | – | – | Cc1cc(C)c(S(=O)(=O)NC(C)Cc2c[nH]c3ccc(F)cc23)c(C)c1 (centres unmarked) [N-[2-(5-Fluoro-1H-indol-3-yl)-1-methylethyl]-2,4,6-trimethylbenzenesulfonamide]
≤ 100 | – | – | Cc1cc(C)c(S(=O)(=O)NC(C)Cc2c[nH]c3cc(F)ccc23)c(C)c1 (centres unmarked) [N-[2-(6-Fluoro-1H-indol-3-yl)-1-methylethyl]-2,4,6-trimethylbenzenesulfonamide]
